Source: patent US20240358693A1, “METHODS OF TREATING PAIN” (Aisa Pharma, Inc., priority 2023, published 2024)

Test system: participants with SSc-RP
Test: Average severity of weekly RP attacks (VAS 0-10 cm scale)
Format: in vivo, human
From the text: The absolute change in average severity of weekly RP attacks (VAS 0-10 cm scale) from baseline to the end of each Dosing Period was and will be a secondary outcome variable. The sponsor-developed participant-informed diary will be used to record data. Average severity of weekly RP attacks is defined as the total severity scores of RP attacks divided by total number of RP attacks within the last 7 days of each dosing period. Total severity scores of RP attacks during the last 7 days of screening period divided by the total number of RP attacks will be used as baseline for the analysis of all periods. The variable will be calculated similar to frequency data as before.

[1] = Pooled Cilnidipine 10 mg and Cilnidipine 10 mg + Tadalafil 5 mg, n=1, by Baseline RCS, second subgroup, ITT Population - Part A
[2] = Pooled Cilnidipine 10 mg and Cilnidipine 10 mg + Tadalafil 5 mg, n=2, by Baseline RCS, first subgroup, ITT Population - Part A
[3] = Pooled Cilnidipine 10 mg and Cilnidipine 10 mg + Tadalafil 5 mg, n=3, Excluding Outliers, ITT Population - Part A
[4] = Pooled Cilnidipine 10 mg and Cilnidipine 10 mg + Tadalafil 5 mg, n=3, ITT Population - Part A
[5] = Pooled Cilnidipine 10 mg and Cilnidipine 10 mg + Tadalafil 5 mg, Excluding Outliers, ITT Population - Part A
[6] = Pooled Cilnidipine 10 mg and Cilnidipine 10 mg + Tadalafil 5 mg, Excluding Outliers, by Baseline RCS, first subgroup, ITT Population - Part A
[7] = Pooled Cilnidipine 10 mg and Cilnidipine 10 mg + Tadalafil 5 mg, Excluding Outliers, by Baseline RCS, second subgroup, ITT Population - Part A
[8] = Pooled Cilnidipine 10 mg and Cilnidipine 10 mg + Tadalafil 5 mg, ITT Population - Part A
[9] = Pooled Cilnidipine 10 mg and Cilnidipine 10 mg + Tadalafil 5 mg, first Baseline RCS subgroup block (not named), ITT Part A
[10] = Pooled Cilnidipine 10 mg and Cilnidipine 10 mg + Tadalafil 5 mg, first Baseline RCS subgroup block (not named), ITT Part A, score 0-10
[11] = Pooled Cilnidipine 10 mg and Cilnidipine 10 mg + Tadalafil 5 mg, second Baseline RCS subgroup block (not named), ITT Part A
[12] = Pooled Cilnidipine 10 mg and Cilnidipine 10 mg + Tadalafil 5 mg, second Baseline RCS subgroup block (not named), ITT Part A, score 0-10
[13] = Pooled Cilnidipine 20 mg and Cilnidipine 20 mg + Tadalafil 5 mg, n=1, by Baseline RCS, second subgroup, ITT Population - Part A
[14] = Pooled Cilnidipine 20 mg and Cilnidipine 20 mg + Tadalafil 5 mg, n=3, by Baseline RCS, first subgroup, ITT Population - Part A

SMILES: COCCOC(=O)C1=C(C)NC(C)=C(C(=O)OC/C=C/c2ccccc2)C1c1cccc([N+](=O)[O-])c1 (stereo not shown) [Cilnidipine, cilnidipine]
- Average Severity of Weekly RP Attacks (All Attacks), Percent Change from Baseline, Median (Pooled (over cilnidipine doses), ITT Population - Part A): −7.69%
- Average Severity (0-10) of Weekly Symptomatic RP Attacks, Mean [1]: 5.23
- Average Severity (0-10) of Weekly Symptomatic RP Attacks, Median [1]: 5.23
- Average Severity of Weekly Symptomatic RP Attacks, Change from Baseline, Mean [1]: −1.13
- Average Severity of Weekly Symptomatic RP Attacks, Change from Baseline, Median [1]: −1.13
- Average Severity of Weekly Symptomatic RP Attacks, Percent Change from Baseline, Mean [1]: −17.81%
- Average Severity of Weekly Symptomatic RP Attacks, Percent Change from Baseline, Median [1]: −17.81%
- Average Severity (0-10) of Weekly Symptomatic RP Attacks, Mean [2]: 3.34
- Average Severity (0-10) of Weekly Symptomatic RP Attacks, Median [2]: 3.34
- Average Severity of Weekly Symptomatic RP Attacks, Change from Baseline, Mean [2]: −1.22
- Average Severity of Weekly Symptomatic RP Attacks, Change from Baseline, Median [2]: −1.22
- Average Severity of Weekly Symptomatic RP Attacks, Percent Change from Baseline, Mean [2]: −20.18%
- Average Severity of Weekly Symptomatic RP Attacks, Percent Change from Baseline, Median [2]: −20.18%
- Average Severity (0-10) of Weekly Symptomatic RP Attacks, Mean [3]: 3.97
- Average Severity (0-10) of Weekly Symptomatic RP Attacks, Median [3]: 3.77
- Average Severity of Weekly Symptomatic RP Attacks, Change from Baseline, Mean [3]: −1.19
- Average Severity of Weekly Symptomatic RP Attacks, Change from Baseline, Median [3]: −1.13
- Average Severity of Weekly Symptomatic RP Attacks, Percent Change from Baseline, Mean [3]: −19.39%
- Average Severity of Weekly Symptomatic RP Attacks, Percent Change from Baseline, Median [3]: −17.81%
- Average Severity (0-10) of Weekly Symptomatic RP Attacks, Mean [4]: 3.97
- Average Severity (0-10) of Weekly Symptomatic RP Attacks, Median [4]: 3.77
- Average Severity of Weekly Symptomatic RP Attacks, Change from Baseline, Mean [4]: −1.19
- Average Severity of Weekly Symptomatic RP Attacks, Change from Baseline, Median [4]: −1.13
- Average Severity of Weekly Symptomatic RP Attacks, Percent Change from Baseline, Mean [4]: −19.39%
- Average Severity of Weekly Symptomatic RP Attacks, Percent Change from Baseline, Median [4]: −17.81%
- Average Severity of Weekly RP Attacks (All Attacks), Change from Baseline, Mean [5]: −1.34
- Average Severity of Weekly RP Attacks (All Attacks), Change from Baseline, Median [5]: −1.32
- Average Severity of Weekly RP Attacks (All Attacks), Mean [5]: 3.62
- Average Severity of Weekly RP Attacks (All Attacks), Median [5]: 3.05
- Average Severity of Weekly RP Attacks (All Attacks), Percent Change from Baseline, Mean [5]: −23.02%
- Average Severity of Weekly RP Attacks (All Attacks), Percent Change from Baseline, Median [5]: −21.20%
- Average Severity of Weekly Symptomatic RP Attacks (Mean) [6]: 3.34
- Average Severity of Weekly Symptomatic RP Attacks (Median) [6]: 3.34
- Average Severity of Weekly Symptomatic RP Attacks, Change from Baseline, Mean [6]: −1.22
- Average Severity of Weekly Symptomatic RP Attacks, Change from Baseline, Median [6]: −1.22
- Average Severity of Weekly Symptomatic RP Attacks, Percent Change from Baseline, Mean [6]: −20.18%
- Average Severity of Weekly Symptomatic RP Attacks, Percent Change from Baseline, Median [6]: −20.18%
- Average Severity of Weekly Symptomatic RP Attacks (Mean) [7]: 5.23
- Average Severity of Weekly Symptomatic RP Attacks (Median) [7]: 5.23
- Average Severity of Weekly Symptomatic RP Attacks, Change from Baseline, Mean [7]: −1.13
- Average Severity of Weekly Symptomatic RP Attacks, Change from Baseline, Median [7]: −1.13
- Average Severity of Weekly Symptomatic RP Attacks, Percent Change from Baseline, Mean [7]: −17.81%
- Average Severity of Weekly Symptomatic RP Attacks, Percent Change from Baseline, Median [7]: −17.81%
- Average Severity of Weekly RP Attacks (All Attacks), Change from Baseline, Mean [8]: −1.34
- Average Severity of Weekly RP Attacks (All Attacks), Change from Baseline, Median [8]: −1.32
- Average Severity of Weekly RP Attacks (All Attacks), Mean [8]: 3.62
- Average Severity of Weekly RP Attacks (All Attacks), Median [8]: 3.05
- Average Severity of Weekly RP Attacks (All Attacks), Percent Change from Baseline, Mean [8]: −23.02%
- Average Severity of Weekly RP Attacks (All Attacks), Percent Change from Baseline, Median [8]: −21.20%
- Average Severity of Weekly RP Attacks (All Attacks), Percent Change from Baseline, Mean [9]: −23.94%
- Average Severity of Weekly RP Attacks (All Attacks), Percent Change from Baseline, Median [9]: −23.94%
- Average Severity of Weekly RP Attacks (All Attacks), Change from Baseline, Mean [10]: −1.35
- Average Severity of Weekly RP Attacks (All Attacks), Change from Baseline, Median [10]: −1.35
- Average Severity of Weekly RP Attacks (All Attacks), Mean [10]: 2.97
- Average Severity of Weekly RP Attacks (All Attacks), Median [10]: 2.97
- Average Severity of Weekly RP Attacks (All Attacks), Percent Change from Baseline, Mean [11]: −21.20%
- Average Severity of Weekly RP Attacks (All Attacks), Percent Change from Baseline, Median [11]: −21.20%
- Average Severity of Weekly RP Attacks (All Attacks), Change from Baseline, Mean [12]: −1.32
- Average Severity of Weekly RP Attacks (All Attacks), Change from Baseline, Median [12]: −1.32
- Average Severity of Weekly RP Attacks (All Attacks), Mean [12]: 4.90
- Average Severity of Weekly RP Attacks (All Attacks), Median [12]: 4.90
- Average Severity (0-10) of Weekly Symptomatic RP Attacks, Mean [13]: 5.06
- Average Severity (0-10) of Weekly Symptomatic RP Attacks, Median [13]: 5.06
- Average Severity of Weekly Symptomatic RP Attacks, Change from Baseline, Mean [13]: −1.79
- Average Severity of Weekly Symptomatic RP Attacks, Change from Baseline, Median [13]: −1.79
- Average Severity of Weekly Symptomatic RP Attacks, Percent Change from Baseline, Mean [13]: −26.14%
- Average Severity of Weekly Symptomatic RP Attacks, Percent Change from Baseline, Median [13]: −26.14%
- Average Severity (0-10) of Weekly Symptomatic RP Attacks, Mean [14]: 2.85
- Average Severity (0-10) of Weekly Symptomatic RP Attacks, Median [14]: 2.40
- Average Severity of Weekly Symptomatic RP Attacks, Change from Baseline, Mean [14]: −1.06
- Average Severity of Weekly Symptomatic RP Attacks, Change from Baseline, Median [14]: −0.33
- Average Severity of Weekly Symptomatic RP Attacks, Percent Change from Baseline, Mean [14]: −24.28%
- Average Severity of Weekly Symptomatic RP Attacks, Percent Change from Baseline, Median [14]: −12.02%
